In patent US4395558A, “9-Epi-mitomycin B and D compounds” (Kyowa Hakko Kogyo Kabushiki Kaisha, priority 1979, dated 1983):
In brackets after ≈: the same amount, converted by molar mass. Like-named read-outs stand apart in the source and are kept apart here.

Legend:
Bacillus subtilis #10707 = test: Minimum growth inhibitory concentration by agar dilution method; type: cell-based; settings: for MIC: Bacillus subtilis, pH 7, read-out: Minimum growth inhibitory concentration; for Minimum growth inhibitory concentration: Bacillus subtilis #10707, agar dilution method at pH 7.0
Source text: (§1) Minimum growth inhibitory concentration (μg/ml)
(§2) by agar dilution method at pH 7.0

[1] = system: Klebsiella pneumoniae ATCC 10031; test: as above; type: cell-based; settings: for Minimum growth inhibitory concentration: Klebsiella pneumoniae ATCC 10031, agar dilution method at pH 7.0
Source text: as §1, §2

[2] = system: Proteus vulgaris ATCC 6897; test: as above; type: cell-based; settings: for MIC: Proteus vulgaris; for Minimum growth inhibitory concentration: Proteus vulgaris ATCC 6897
Source text: as §1, §2

[3] = system: Pseudomonas cepacia ATCC 25608; test: as above; type: cell-based; settings: for MIC: Burkholderia cepacia, ATCC25608, pH 7, read-out: Minimum growth inhibitory concentration; for Minimum growth inhibitory concentration: Pseudomonas cepacia ATCC 25608, agar dilution method at pH 7.0
Source text: as §1, §2

[4] = system: Serratia marcescens ATCC 4003; test: as above; type: cell-based; settings: for MIC: Serratia marcescens, ATCC4003, pH 7, read-out: Minimum growth inhibitory concentration; for Minimum growth inhibitory concentration: Serratia marcescens ATCC 4003, agar dilution method at pH 7.0
Source text: as §1, §2

[5] = system: Shigella sonnei ATCC 9290; test: as above; type: cell-based; settings: for MIC: Shigella sonnei; for Minimum growth inhibitory concentration: Shigella sonnei ATCC 9290
Source text: as §1, §2

[6] = system: Staphylococcus aureus ATCC 6538P; test: as above; type: cell-based; settings: for MIC: Staphylococcus aureus, ATCC6538P; for Minimum growth inhibitory concentration: Staphylococcus aureus ATCC 6538P
Source text: as §1, §2

[7] = system: Salmonella typhosa ATCC 9992; test: as above; type: cell-based; settings: for Minimum growth inhibitory concentration: Salmonella typhosa ATCC 9992, agar dilution method at pH 7.0
mouse = test: LD50 (mouse, ip.); type: in vivo
Source text: (§3) | LD50 (mouse, ip.) (mg/kg)

various microorganisms = test: Growth inhibition of various microorganisms / antibacterial activity (in words); type: cell-based; settings: statement in words
Source text: as §1, §2

Escherichia coli ATCC 26 = test: Minimum growth inhibitory concentration by agar dilution method; type: cell-based; settings: for Minimum growth inhibitory concentration: Escherichia coli ATCC 26, agar dilution method at pH 7.0; for MIC: Escherichia coli, ATCC26, pH 7, read-out: Minimum growth inhibitory concentration
Source text: as §1, §2

LD50 (mouse, ip.) = type: in vivo; settings: in vivo, ip
Source text: as §3

[8] = agar dilution method at pH 7.0, listed as Vb-1
[9] = agar dilution method at pH 7.0, listed as M-D
[10] = agar dilution method at pH 7.0, listed as M-B

CC1=C(N)C(=O)C2=C(C1=O)N1CC3C(N3C)C1(O)C2COC(N)=O (stereo not drawn) [9-epi-mitomycin D]
MIC (Bacillus subtilis #10707): 6.3 µg/mL (≈ 18.8 µM)
Minimum growth inhibitory concentration ([1]; listed as Va-1): 3.1 µg/mL
MIC ([2]; ATCC6897, pH 7, read-out: Minimum growth inhibitory concentration, Proteus vulgaris ATCC 6897, agar dilution method at pH 7.0): 12.5 µg/mL (≈ 37.4 µM)
MIC [3]: > 50 µg/mL
MIC [4]: > 50 µg/mL
MIC ([5]; ATCC9290, pH 7, read-out: Minimum growth inhibitory concentration, Shigella sonnei ATCC 9290, agar dilution method at pH 7.0): > 50 µg/mL
MIC ([6]; pH 7, read-out: Minimum growth inhibitory concentration, Staphylococcus aureus ATCC 6538P, agar dilution method at pH 7.0): 25 µg/mL (≈ 74.8 µM)
MIC ([7]; Salmonella enterica, pH 7, read-out: Minimum growth inhibitory concentration): > 50 µg/mL
LD50 (mouse): 150 mg/kg
inhibiting activity against the growth of various microorganisms / antibacterial activity (various microorganisms): high inhibiting activity

COC1=C(C)C(=O)C2=C(C1=O)C(COC(N)=O)C1(O)C3C(CN21)N3C (stereo not drawn) [9-epi-mitomycin B]
Minimum growth inhibitory concentration (Bacillus subtilis #10707; listed as Vb-1): < 0.024 µg/mL
Minimum growth inhibitory concentration (Escherichia coli ATCC 26; listed as Vb-1): 12.5 µg/mL
Minimum growth inhibitory concentration ([1]; listed as Vb-1): < 0.024 µg/mL
Minimum growth inhibitory concentration [2, 8]: 0.049 µg/mL
Minimum growth inhibitory concentration ([3]; listed as Vb-1): 25 µg/mL
Minimum growth inhibitory concentration ([4]; listed as Vb-1): 3.1 µg/mL
Minimum growth inhibitory concentration [5, 8]: 6.3 µg/mL
Minimum growth inhibitory concentration [6, 8]: 0.049 µg/mL
Minimum growth inhibitory concentration ([7]; listed as Vb-1): 6.3 µg/mL
LD50 (LD50 (mouse, ip.)): 7.5 mg/kg
inhibiting activity against the growth of various microorganisms / antibacterial activity (various microorganisms): high inhibiting activity

CC1=C(N)C(=O)C2=C(C1=O)N1CC3C(N3C)C1(O)C2COC(N)=O (centres unmarked) [mitomycin D, 7-amino-7-demethoxy mitomycin B]
Minimum growth inhibitory concentration (Bacillus subtilis #10707): 6.3 µg/mL
MIC (Escherichia coli ATCC 26): > 50 µg/mL
Minimum growth inhibitory concentration ([1]; listed as M-D): 6.3 µg/mL
Minimum growth inhibitory concentration [2, 9]: 25 µg/mL
Minimum growth inhibitory concentration [5, 9]: 50 µg/mL
Minimum growth inhibitory concentration [6, 9]: 50 µg/mL
Minimum growth inhibitory concentration [7]: > 50 µg/mL
LD50 (mouse): 430 mg/kg

CO[C@@]12[C@H](COC(N)=O)C3=C(C(=O)C(C)=C(N)C3=O)N1C[C@@H]1N[C@@H]12 [mitomycin C, Mitomycin C]
MIC (Bacillus subtilis #10707): 0.02 µg/mL (≈ 0.0598 µM)
MIC (Escherichia coli ATCC 26): 10 µg/mL (≈ 29.9 µM)
MIC ([1]; Klebsiella pneumoniae, ATCC10031, pH 7, read-out: Minimum growth inhibitory concentration): 0.0098 µg/mL (≈ 0.0293 µM)
MIC ([2]; ATCC6897, pH 7, read-out: Minimum growth inhibitory concentration): 0.078 µg/mL (≈ 0.233 µM)
MIC [3]: 10 µg/mL (≈ 29.9 µM)
MIC [4]: 5 µg/mL (≈ 15 µM)
MIC ([5]; ATCC9290, pH 7, read-out: Minimum growth inhibitory concentration): 5 µg/mL (≈ 15 µM)
MIC ([6]; pH 7, read-out: Minimum growth inhibitory concentration): 0.156 µg/mL (≈ 0.467 µM)

COC1=C(C)C(=O)C2=C(C1=O)C(COC(N)=O)C1(O)C3C(CN21)N3C (centres unmarked) [mitomycin B, Mitomycin B]
Minimum growth inhibitory concentration (Bacillus subtilis #10707; listed as M-B): 0.020 µg/mL
Minimum growth inhibitory concentration (Escherichia coli ATCC 26; listed as M-B): > 10 µg/mL
Minimum growth inhibitory concentration ([1]; listed as M-B): 0.16 µg/mL
Minimum growth inhibitory concentration [2, 10]: 0.078 µg/mL
Minimum growth inhibitory concentration ([3]; listed as M-B): 10 µg/mL
Minimum growth inhibitory concentration ([4]; listed as M-B): 2.5 µg/mL
Minimum growth inhibitory concentration [5, 10]: 5.0 µg/mL
Minimum growth inhibitory concentration [6, 10]: 0.039 µg/mL
Minimum growth inhibitory concentration ([7]; listed as M-B): 10.0 µg/mL
LD50 (mouse): 4.5 mg/kg
